The text below walks through data of publication PMC6368365, “Didehydro-Cortistatin A Inhibits HIV-1 by Specifically Binding to the Unstructured Basic Region of Tat” (mBio, 2019).

One data set concerns HIV-1 TAR. As to the kind of experiment: ITC of dCA binding to TAR. The settings on record: 25°C. The source says:
FIG 6 dCA binding to Tat disrupts Tat-TAR interaction. (A) EMSA of full-length Tat with TAR in the presence of dCA. Raltegravir (Ralt.) and deleted bulge TAR (ΔTAR) were used as negative controls. Data are representative of n = 3 independent experiments. (B) EMSA of Tat’s basic domain with TAR in the presence of increasing concentrations of dCA to Tat’s basic peptide. Pep B is a peptide encompassing the basic domain of HIV Tat (^45ISYGRKKRRQRRRAP^59). Pep C (^69LSKQPASQPRGDPTG^83) and unlabeled or cold TAR (TARc) were used as negative controls. Neomycin, which binds to Tat and TAR, was used as a positive control. Ratios of compounds (or TARc) concentrations to peptide are shown. Data are representative of n = 3 independent experiments. […] Shown are ITC results from binding of dCA (left) or Tat peptide (right) to TAR at 25°C. […] Luciferase activity was determined relative to protein concentration (Bradford assay) (Fig. S9A). […] Statistical significance was determined using one-way ANOVA with post hoc Tukey’s test with 3 technical replicates. ns, not significant; ***, P < 0.0001. […]
Isothermal titration calorimetry. […] Each injection generated a heat burst curve (microcalories/second vs. seconds) and the area under each curve was determined by integration [using the origin version 7.0 software (Microcal, Inc.; Northampton, MA)] to obtain the measure of the heat associated with that injection.

The target of another data set is T1, FLAG-tagged Rev (Human immunodeficiency virus type 1 group M subtype B, UniProt P04618).
T1 construct: expressed in transfected cells; host or cells: HeLa-CD4-LTR-Luc
Kind of data set: Confocal immunofluorescence of FLAG-Rev subcellular localization. It is filed as cell-based, HIV-1. Conditions: 100 nM dCA, HeLa-CD4-LTR-Luc cells. The source says: If dCA were to bind the basic domain of Tat in its disordered form, then one would predict it might also bind to other basic peptide sequences and block their functions. The two well-known proteins that share a similar basic domain with Tat are HIV-1 Rev protein and the cellular protein Hexim-1 (Fig. 3A). As such, we investigated whether dCA could inhibit these similar basic domain functions. The basic domain of Rev is responsible for its nuclear localization ([31]); therefore, we assessed whether dCA could impact the subcellular localization of Rev (Fig. 3B) as previously shown for Tat ([10]). We transfected HeLa-CD4-LTR-Luc cells with a plasmid expressing FLAG-tagged Rev and assessed Rev localization in the presence of 100 nM dCA. […] Twenty-four hours later, cells were collected, and total, nuclear, and cytoplasmic mRNAs were extracted, reverse transcribed, and quantified by quantitative real-time PCR (qRT-PCR).
(A) Sequence of the basic domains of HIV Tat HXB3, HIV Rev Bru and intracellular Hexim-1. […] (C) Quantification of the nucleolar fluorescence of panel B using ImageJ. […] Total, nuclear, and cytoplasmic mRNAs were extracted, and viral messages were determined by qRT-PCR. […] (G) Quantification of nuclear fluorescence of panel F using ImageJ. […] Statistical significance was determined using one-way ANOVA with post hoc Tukey’s test. ns, not significant; ***, P < 0.0001; **, P < 0.001. […]

For data set [1] the following is noted: in vivo; cited from earlier work.

Molecules are shown by their SMILES.

T1 sequence (P04618 whole entry, looked up): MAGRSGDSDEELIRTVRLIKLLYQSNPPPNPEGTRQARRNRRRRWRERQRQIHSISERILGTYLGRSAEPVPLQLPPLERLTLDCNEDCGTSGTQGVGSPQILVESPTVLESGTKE

With `CN(C)C1CC23CCC4(O2)C(=CCC2(C)C(c5ccc6ccncc6c5)=CCC24)C=C3C(O)C1O` (stereo not drawn) [dCA, didehydro-cortistatin A], the “binding to TAR (ITC)” value with HIV-1 TAR was “does not bind to TAR”. Also, the “subcellular localization of Rev” value at FLAG-tagged Rev is recorded as “localization of Rev was left unchanged”. Further, the “penetration of viral sanctuaries” value in data set [1] is on record as “penetrates viral sanctuaries such as the brain”.
